From patent US20190314311A1, “PHARMACEUTICAL COMPOSITION” (JAPAN SCIENCE AND TECHNOLOGY AGENCY, priority 2016, published 2019)

What was measured:
[1] = Non-Patent Documents 3 and 4; cited from earlier work
[2] = test system: Q40-GFP expressing nematode line; test: tail-flick test in C. elegans model of the PolyQ diseases; format: in vivo, Caenorhabditis elegans; conditions: 10 mM arginine, 6 days old nematodes, 20° C.
Description: (§1) As a C. elegans model of the polyQ diseases, a Q40-GFP expressing nematode line (Non-Patent Document 14), which is a C. elegans line expressing GFP having a polyQ repeat consisting of 40 glutamines (Q40-GFP) was used.
(§2) Nematodes were grown at 20° C. on nematode growth medium (NGM) plates seeded with Escherichia coli OP50. For the generation of the Q40-GFP expression nematode line, plasmids encoding Q40-GFP were injected into wild type strain N2.
Tail-flick tests were performed at 20° C. on nematodes synchronized to 6 days old. First, each nematode was transferred to a separate plate. One drop of S-basal solution was dropped on one nematode, and after waiting for 5 minutes for them to recover, the number of movements of the tail of the worm was measured for 1 minute. The number of movements of the tail was defined as the number of times to change the bending direction of the mid-body of a nematode.

Thio-Q62 protein [3] = test: protein aggregation turbidity assay; format: biochemical; conditions: 8.2 μM Thio-Q62, 600 mM arginine, PBS, 37° C., neutral pH, 5 days
Description: In the subsequent experiments, the protein aggregation turbidity assay was performed by the method described in Non-Patent Document 6. Specifically, it was performed as follows.
(§3) A solution in which abnormally expanded proteins were dissolved in physiological saline phosphate (PBS) was used as a measurement sample. The solution was incubated at 37° C., and turbidity at 405 nm was measured every 24 hours using a microplate reader “Spectramax Plus plate reader” (Molecular Devices Inc.).
As an abnormally expanded PolyQ protein, a Thioredoxin-Q62 (Thio-Q62) fusion protein consisting of Thioredoxin and a PolyQ stretch with 62 glutamines was used.
As a control, Thio-Q62 protein alone was incubated in the same manner, and the turbidity was measured every 24 hours.
As controls, a solution containing Thio-Q62 protein alone, and a solution containing Thio-Q62 protein and 400 mM proline were incubated in the same manner, respectively, and turbidity was measured after 5 days. […] The relative turbidity (%) of each solution was measured. The turbidity of the solution containing Thio-Q62 protein alone was set to 100%. In the figure, values represent means±SEM (n=3). “*” represents p<0.05, “***” represents p<0.001, “n.s.” represents not significant.

SCA1 mice [4] = test: rotarod test, arginine from 3 weeks of age; format: in vivo, mouse; conditions: 6% by weight arginine in drinking water from 3 weeks of age
Text: SCA1 mice express the abnormally expanded polyQ protein (the mutant ataxin 1 protein with polyQ repeats consisting of 154 glutamines) at endogenous levels and with accurate temporal and spatial patterns, and replicates numerous aspects of the human disease including progressive motor deficit. The SCA1 mice used in this experiment were a kind gift from Dr. Kei Watase (Tokyo Medical and Dental University, Japan).
Rotarod tests have been previously utilized for the assessment of motor function in SCA1 mice (Non-Patent Document 15).
For rotarod analysis, mice were tested on an accelerating rotarod apparatus (Ugo Basile) and performed according to the method described in Non-Patent Document 17. The time courses of the amount of walking time until wild type mice and SCA1 mice fell from the rotarod (Latency) are shown in FIG. 17. […] In the figure, values represent means±SEM (n=16-18), “**” represents p<0.01, and “***” represents p<0.001, respectively.

[5] = Non-Patent Document 5; cited from earlier work
SCA1 mice [6] = test: immunohistochemical analysis of PolyQ inclusion bodies in brain; format: in vivo, mouse; conditions: 12-week-old SCA1 mice, 6% arginine in drinking water from 3 weeks
Description: It was reported that SCA1 mice develop polyQ inclusion bodies (PolyQ protein aggregates) in their neurons of the cerebral cortex and hippocampus from around 4 weeks of age (Non-Patent Document 15).
PolyQ inclusion bodies in brain sections were detected using immunohistochemical analysis. First, ten-micrometer-thick frozen sections of 12 week-old SCA1 mouse brains were prepared according to the method described in Non-Patent Document 17. The sections were blocked in PBS containing 5% goat serum and 0.1% Triton X-100 for 1 hour at room temperature, then incubated with a rabbit anti-ubiquitin antibody (clone FK2, 1:500) at 4° C. overnight, followed by an Alexa Fluor 488-conjugated goat anti-rabbit IgG antibody (1:1,000, Life Technologies) for 1 hour at room temperature. […]
By confocal laser scanning microscopy, inclusion bodies stained with the anti-ubiquitin antibody can be visualized. Therefore, the sections were observed using a confocal laser scanning microscope, cells included in the field of view were counted, and the percentage (%) of the cells in which the inclusion bodies were formed to the total number of cells was measured. In each mouse, the cell count was averaged for 3 fields of view, in which over 130 or 70 cells were counted in the cortex or hippocampus, respectively. […]

Thio-Q62 protein [7] = test: seed-induced polyQ aggregation reaction (turbidity); format: biochemical; conditions: 10 μM Thio-Q62 + seeds, 400 mM arginine or proline, 37° C., 7 days
Description: as §3

[8] = test system: Q40-GFP expressing nematode line; test: lifespan analysis in C. elegans model of the PolyQ diseases; format: in vivo, Caenorhabditis elegans; conditions: 10 mM arginine; log-rank P<0.01
Description: as §1, §2
For lifespan analysis, nematodes were cultured on OP50 bacteria, and were examined daily for signs of life.

amyloid-β (beta) 1-42 = target: T1, amyloid-β (beta) 1-42 (Homo sapiens, UniProt P05067); conditions: Non-Patent Document 2; cited from earlier work
T1 construct: amyloid-β (beta) 1-42
T1 sequence (P05067 672-713 limits assumed): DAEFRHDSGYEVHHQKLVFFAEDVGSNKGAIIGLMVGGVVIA

N=C(N)NCCC[C@H](N)C(=O)O [arginine]
safety in clinical trials [1]: safety of arginine has been established | tail movements per minute [2]: significantly improved | lag phase of turbidity time course (Thio-Q62 protein [3]): elongated the lag phase | speed of aggregation (turbidity time course) (Thio-Q62 protein [3]): decreased the speed of aggregation | motor function, rotarod latency (SCA1 mice [4]; 4 to 12 weeks of age): significantly better than the untreated mice | therapeutic effect on rotarod, duration (SCA1 mice [4]; until 28 weeks of age): remained significant until 28 weeks of age | crossing of the blood brain barrier (BBB) [5]: known to cross the blood brain barrier | percentage of cells with inclusion body formation, cerebral cortex (SCA1 mice [6]): significantly decreased | percentage of cells with inclusion body formation, hippocampus (SCA1 mice [6]): significantly decreased | seed-induced increase in turbidity (Thio-Q62 protein [7]): markedly decreased | survival rate [8]: significantly improved | aggregation of amyloid-β 1-42 (amyloid-β (beta) 1-42): prevents aggregation
